Laboratory results reported in US20070104649A1, “Optically fluorescent nanoparticles” (priority 2005, published 2007).

Assay: UV-Vis absorption spectra of co-aggregate (J-aggregate) formation
Assay type: physicochemical
Details: non-aggregated dye
Description: An aqueous solution of 0.1% (w/v) PEI (1.8, 10, 70, or 750 kDa) is gently stirred, and an aqueous solution of 0.02% (w/v) TITCC is instantly added. This composition is further agitated at about 4° C. for about 30-45 minutes under UV protection. The aggregation progress is monitored by UV-Vis spectra starting from 900 nm down to 600 nm.
This is confirmed by the absence of the starting wavelength of 756 nm of the pure dye, and by the new wavelength maximum at approximately 800 nm from the J-aggregates. In case of 100 and 125% surplus of PEI, the two wavelength maxima indicate that the dye is only partially bound as J-aggregate. Therefore, the wavelength of the pure dye and the wavelength maximum of the J-aggregates can be detected side by side. All measured samples contained the same concentration of dye. The absorption is reduced due to the quenching effects in the J-aggregates. UV-Vis spectra were recorded by UV-2401-PC spectrophotometer (Shimadzu Corp.).
This may be due to a more compact dye-polymer-complex if fewer cationic charges for stabilisation are available. Vice versa, the complexes are less compact having a greater amount of polymer which results in a smaller shift to approximately 795 nm.

SMILES: CC(C=CC=C1N(CCS(=O)(=O)[O-])c2ccc(S(=O)(=O)[O-])cc2C1(C)C)=CC=CC1=[N+](CCS(=O)(=O)[O-])c2ccc(S(=O)(=O)[O-])cc2C1(C)C.[Na+].[Na+].[Na+] [TITCC, trisodium-3,3-dimethyl-2-{4-methyl-7-[3,3-dimethyl-5-sulfonato-1-(2-sulfonatoethyl)-3H-indolium-2-yl]hepta-2,4,6-trien-1-ylidene}-1-(2-sulfonatoethyl)-2,3-dihydro-1H-indole-5-sulfonate, inner salt]
- absorption wavelength maximum of the pure dye: 756 nm
